Data set [1] can be described thus: Specific surface area by low-temperature nitrogen adsorption (BET). The data set is classed as physicochemical. The settings on record: for Specific Area measured [m^2/g]: BET isotherm, nitrogen adsorption. As for the experimental part: Specific surface area was measured using a low-temperature nitrogen adsorption apparatus, a Pulse Chemisorb 2700.
The specific surface area data, which were evaluated using a BET isotherm, support the nonporous nature/character of the particles. The measured value of the specific surface area was about 2.8 m^2/g, which is consistent with the calculation of the specific surface area of hypothetical material which consists of non-porous spheres with a radius of 3 μm. Considering the skeletal density of crystallized iohexol (2.097 g/cm3), the calculated specific surface area of this hypothetical material is about 4 m^2/g. All data provided by analyses appear to support the conclusion that the crystallized iohexol solid material contains agglomerates consisting of small nonporous particles and that the total specific area is the sum of the outer surface areas of these particles.
Experimentally obtained values of the specific surface area are very low, which is typical of macroporous to non-porous materials. Experimental specific surface area values for all samples are in good agreement with the estimated values based on SEM image analysis, (calculating the particle surface area based on the geometrical shape of particles, i.e., and assuming that the particles are not porous (confirmed by mercury porosimetry as discussed above). Individual values and comparisons of the amount of nitrogen desorption for each sample are summarized in Table 5.

A short description of data set [2]: Skeletal density by helium pycnometer. The data set is classed as physicochemical. The settings on record: Table 5, Example 3. As for the experimental part: As used herein, the term “interparticle spacing” denotes the percentage of the “bulk” particle volume which is free space. The interparticle spacing can be calculated from the bulk density and skeletal density. As discussed above, bulk density refers to the density determined by dividing the weight of the sample by its measured volume, for example using the USP <616> method. The skeletal density, sometimes referred to as the “true density,” is determined by dividing the weight of a sample by its “true” volume—i.e., the volume excluding interstitial voids and any open porosity in the sample (e.g., determined by gas displacement techniques). […] The porosity of the iohexol particles was also investigated using mercury intrusion, and the skeletal density was determined by helium pycnometer and physical adsorption of nitrogen.

Consider `CC(=O)N(CC(O)CO)c1c(I)c(C(=O)NCC(O)CO)c(I)c(C(=O)NCC(O)CO)c1I` (stereo not shown) [SDI, iohexol], for which the “Specific Area measured [m^2/g]” value is reported as <1 m^2/g in data set [1] (Table 5) and “less than 1 m^2/g” in data set [1] (Table 5, listed as spray dried iohexol). Also, the “Specific Area estimated [m^2/g]” value in data set [1] (Table 5, calculated from SEM geometry assuming non-porous spheres) is listed as 0.5^b m^2/g. The “Relative desorbed amount Ad/Ad(crystallized)” value in data set [1] (Table 5, nitrogen desorbed relative to crystallized iohexol) is recorded as 0.08. In data set [1] (Table 6, Example 5, listed as spray dried iohexol), the “Specific surface area m^2/g” value is listed as “about 0.5 m^2/g”. In addition, the “Skeletal density” value in data set [2] and in data set [2] (listed as spray dried iohexol) was 2.029 g/mL in each case.

These data come from patent US10350311B2, “Iohexol powder and method of using the same” (Otsuka Pharmaceutical Co., Ltd., priority 2014, dated 2019).
